Test: Canine pyruvate study blood chemistry
Format: in vivo
Conditions: dogs fed pyruvate compared to similar foods containing fish oil
From the text: 40 dogs were fed a control food for 28 days prior to start of the study. At day 0, dogs were allotted to one of three experimental foods, control+fish oil, control+pyruvate, or control+fish oil and pyruvate. Dogs were fed the experimental foods for 45 days. [table]

With `CC(=O)C(=O)O` [pyruvate, calcium pyruvate] the blood urea nitrogen was “reduced” and the creatinine was “reduced”.

Reference: patent US9173422B2, “Compositions including pyruvate for companion animals and methods of use thereof” (Hill's Pet Nutrition, Inc., priority 2009, dated 2015)
